Experimental data as given in US20250360233A1, “Central Neurodegeneration Imaging Agent and Method of Preparing the Same” (National Atomic Research Institute, priority 2024, published 2025).
Read-outs that look alike come from different tables or passages of the source.

What was measured:
[1] = system: mouse brains (PD brain lesions); experiment: PET brain imaging of Rotenone-induced Parkinson's disease mice versus Sham; type: in vivo; conditions: for F-18 images of PD brains compared with the control group (Sham): Rotenone tube feeding 12 weeks
Excerpt: Regarding its application, the present invention entails feeding Rotenone to mice by tube feeding continuously for 12 weeks to induce the mouse brains to manifest Parkinson's disease (PD) symptom animal mode for function as the experimental group, treating mice with placebo to serve as the control group (Sham) without manifesting any PD lesions, performing imaging of the mouse brains with an F-18-FE-PE21, F-18-FDOPA and F-18-α-syn3 respectively, displaying the longitudinal-section and cross-section images of the mouse brains, and comparing the intake of the F-18 imaging agent into the mouse brains.

[2] = F-18-α-syn3 serum stability; type: in vitro ADME; conditions: serum at 37° C., after a hour
Protocol: Moreover, the present invention discloses giving considerations to the F-18-α-syn3 formula and serum stability and thus conducting F-18-α-syn3 formula research to attain a recycling rate as high as 90.1%. Regarding a test of F-18-α-syn3 serum stability, medications are placed within serum at 37° C., achieving radioactive chemical purity of 91.5% even after a hour.

[3] = logP analysis of the F-18-α-syn3; type: physicochemical
Excerpt: The experimental results of the logP analysis of the F-18-α-syn3 of the present invention are as follows:
The above data is about testing the logP of the F-18-α-syn3 labeling finished product solution repeatedly. The result confirms that all the logP values range from 2 to 3.

amyloid-β(Aβ) = amyloid-β(Aβ) (Homo sapiens, UniProt P05067); experiment: affinity comparison, amyloid-β; type: binding; conditions: read-out: amyloid-β(Aβ) value compared with the α-synuclein IC50
Chain of amyloid-β(Aβ) (P05067 672-713 limits assumed): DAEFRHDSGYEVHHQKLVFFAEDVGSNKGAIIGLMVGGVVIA
Excerpt: (§1) Therefore, the present invention not only effectively reduces the logP value but also passes a test of affinity, specificity, and parallel artificial membrane.

[4] = parallel artificial membrane permeation assay (PAMPA) simulating the blood-brain barrier; type: in vitro ADME
Excerpt: as §1

α-synuclein = α-synuclein (Homo sapiens, UniProt P37840); experiment: test tube competition test, α-synuclein; conditions: read-out: IC50 (50% binding inhibition)
Excerpt: as §1

[5] = Rotenone PD mice versus Sham, PET

| Structure (SMILES) | selectivity in terms of brain distribution [1, 5] | F-18 images of PD brains compared with the control group (Sham) ([1]; mice, PET) | brain intake, experimental group versus control group [1, 5] | radioactive chemical purity in serum [2] | background absorption level [1, 5] | passage through the blood-brain barrier (BBB) into mouse brains ([1]; mice) | logP ([3]; 50 uCi, read-out: logP) | logP ([3]; end solution, 22 uCi, read-out: logP) | logP ([3]; end solution, 50 uCi, read-out: logP) | logP ([3]; labeling finished product solution tested repeatedly, read-out: logP, range of all repeated tests) | IC50 (amyloid-β(Aβ)) | concentration that ensures the satisfaction of PAMPA [4] | PAMPA pass rate ([4]; concentration of 60 nM) | IC50 (α-synuclein) |
| --- | --- | --- | --- | --- | --- | --- | --- | --- | --- | --- | --- | --- | --- | --- |
| N[C@@H](Cc1cc(O)c(O)cc1[18F])C(=O)O [F-18-FDOPA] | no selectivity | no difference and no specificity | – | – | – | – | – | – | – | – | – | – | – | – |
| Cc1ccc([C@H]2C[C@@H]3CC[C@H]([C@H]2C(=O)OCC[18F])N3C/C=C/I)cc1 [F-18-FE-PE21] | – | no difference and no specificity | lower | – | – | – | – | – | – | – | – | – | – | – |
| O=C1/C(=C\C=C\c2ccc([N+](=O)[O-])cc2)c2ccccc2N1CCOCCF [F-18-α-syn3, (Z)-1-(2-(2-fluoroethoxy)ethyl)-3-((E)-3-(4-nitrophenyl)allylidene) indolin-2-one] | – | clearer F-18 images | – | 91.5% | obviously lower | can pass through the blood-brain barrier | 2.63 | 2.41 | 2.07 | 2 to 3 | 0.142 µM | at least 6 nM | 56.25% | 0.172 µM |
